From article PMC3511023, “Peptides presenting the binding site of human CD4 for the HIV-1 envelope glycoprotein gp120” (Beilstein Journal of Organic Chemistry, 2012)
“Also recorded” adds a separate entry of the source. Bridges are numbered along the chain shown (N, C = ends). Where no end group is shown, it is not given here. [ ]: non-standard residue; d: D form.

Each substance was assayed on recombinant gp120 from HIV-1 strain IIIB (assay: Direct ELISA: binding of gp120 to His-tagged peptides on Ni-chelate plates). Settings: peptide coated at 4 µM on Ni-chelate plates; gp120(IIIB) 0.25 µg/mL, 2 h; absorbance at 492 nm, blank-corrected; Ar relative to CD4-M1 = 1; at least twice, each in duplicate.
Experimental: Antibody buffer: Phosphate buffer pH 7.2 containing 1% BSA and 0.1% Tween 20. The wells of 96-well Ni-Chelate plates from Thermo Scientific were coated overnight at 4 °C with peptide solution (100 µL, 4 µM in coupling buffer). After unspecific binding had been blocked with a blocking buffer (1 h at room temperature, gentle agitation), the plates were washed twice. Plates were then incubated for 2 h with 100 µL/well gp120(IIIB) from ImmunoDiagnostics at 0.25 µg/mL (Figure 3, left), or in serial dilutions starting at 2 µg/mL (Figure 3, right) in sample buffer, and washed four times. Following incubation with 100 µL/well sheep-anti-HIV-1-gp120 (D7324) from Aalto Bio Reagents (1:5000 in antibody buffer) for 1 h at room temperature, plates were washed four times with washing buffer, incubated for 1 h at room temperature with 100 µL/well rabbit-anti-sheep-IgG peroxidase conjugate from Dianova (diluted 1:5000 with antibody buffer), and washed four times with washing buffer. Plates were developed with 100 µL/well substrate solution (1 mg/mL OPD in 0.03% H2O2/H2O) in the dark (approx. 20 min), and the reaction was stopped by addition of 2 M sulfuric acid (50 µL/well). Absorbances (A) were read at 492 nm by using a multichannel photometer (Infinite F200 from Tecan).
Relative Affinities (Ar) were calculated according to the following formula:
Ar = (Apeptide – Ablank) / (A1– Ablank)

| Substance | binding to gp120(IIIB) (relative affinity Ar) |
| --- | --- |
| CD4-M3: CD4 residues 22–64, cyclic, F43A, R58A, R59A, S23C, D63C | largely abrogated; also recorded: complete loss of binding |
| CD4-M7: CD4 residues 34–48, cyclic, F43-D-Phe (His6-CIKILGNQGS[dF]LTKGPC; disulfide 1-17 (inferred)) | did not bind to gp120 |
| CD4-M2: His6-tagged cyclic (disulfide) peptide, CD4 residues 22–64, S23C, D63C | strongly enhanced |
| CD4-M6: CD4 residues 34–48, cyclic, F43A | largely abrogated |
| CD4-M4: His6-tagged linear peptide presenting the CDR2-like loop of CD4, residues 34–48 (His6-IKILGNQGSFLTKGP) | only the longer peptide CD4-M1 is recognized by gp120 |
| CD4-M1: His6-tagged linear peptide presenting CD4 residues 22–64 | is recognized by gp120 |
| CD4-M5: CD4 residues 34–48, cyclic through a disulfide between added cysteines (His6-CIKILGNQGSFLTKGPC; disulfide 1-17 (inferred)) | strongly enhanced |

These substances were tested on gp120(MN) (assay: not given). Settings: CD4-M5 60 µM or sCD4 0.4 µg/mL pre-incubated 10 min with gp120(MN) 0.5 µg/mL; 2 h on X5-coated plate; absorbance at 492 nm; at least twice, each in duplicate.

| Substance | enhancement of binding of gp120(MN) to the CD4i antibody X5 |
| --- | --- |
| CD4-M5: CD4 residues 34–48, cyclic through a disulfide between added cysteines (His6-CIKILGNQGSFLTKGPC; disulfide 1-17 (inferred)) | able to enhance binding of gp120 to the CD4i antibody mAb X5 |
